The results in this text go back to patent US20250134926A1, “COMPOSITION FOR ANTI-CANCER TREATMENT COMPRISING IMMUNOGENIC TUMOR-DERIVED EXTRACELLULAR VESICLES USING AN ENDOPLASMIC RETICULUM STRESS INDUCER AND METHOD FOR PRODUCING THE SAME” (priority 2023, published 2025).

This series has as its system melanoma cell line B16F10. The series is described as follows: MTT cytotoxicity evaluation of pretreatment substances. Type of series: cell-based, mouse. To be noted: for viability of tumor cells: B16F10, 24 hours. The method, then: To conduct the cytotoxicity evaluation of each pretreatment substance (tunicamycin and metformin) on the melanoma cell line B16F10, 3-(4,5-dimethylthiazol-2-yl)-2,5-diphenyltetrzolium bromide (MTT) assay was performed. First, 10^4 cells were seeded in each 96-well plate and cultured for 24 hours. Then, cells in each well were treated with each substance at a given concentration and cultured for an additional 24 hours. After the supernatant was discarded, the cells were treated with an MTT-containing medium at the concentration of 0.5 mg/ml and left for two hours, and the intracellular formazan crystals were dissolved in each well using dimethylsulfoxide. Then, the cytotoxicity was analyzed by measuring the absorbance at 570 nm by using a microplate reader.

In the case of tunicamycin, the “viability of tumor cells” value (concentrations of 0.05 μM or less) is listed as “no significant decrease” and the “viability of tumor cells” value (concentrations of 0.1 μM or more) is “decrease in cell viability”. Also, the “highest concentration at which no decrease in cell viability was observed” value (B16F10, MTT, 24 hours) was determined as 0.05 µM.
